Measurements reported in patent US8383136B2, “Micelle encapsulation of therapeutic agents” (Wisconsin Alumni Research Foundation, priority 2009, dated 2013).
In brackets after ≈: the same amount, converted by molar mass. Several values for one entry are separate records, joined by “and”; a condition that tells them apart may be missing. Equal entries are not always repeated. Where two headings read alike, the source gives them in different places. Values belong to the molecule of their own block, whether it stands above or below them.

Key:
[1] = test system: pediatric acute lymphoblastic leukemia cell lines; conditions: combination of 17-AAG and ETO, four cell lines; cited from earlier work
[2] = drug without micelles; cited from earlier work
[3] = % drug loading of PEG-b-PLA micelles (wt drug(s)/wt polymer); assay type: physicochemical; conditions: all drugs of the SDM or MDM together, PEG-b-PLA (4.2K:1.9K) micelles
Experimental: Drug(s) to polymer w/w percent was calculated for SDM and MDM. PEG-b-PLA micelles were freeze dried, weighed and the amount of drug(s) in the freeze dried sample was quantified by HPLC. The drug w/w percent was calculated as the mass of the drug(s) to the mass of polymer in the freeze dried sample multiplied by 100.

[4] = Dynamic light scattering size of SDM and MDM; assay type: physicochemical; conditions: DLS, drug-loaded SDM or MDM
Experimental: The drug-loaded micellar solutions were diluted 20 times with DD H2O and the samples was equilibrated for 2 min at 25° C. before the measurements. […] The hydrodynamic diameter of PEG-b-PLA micelles was calculated based on the Stokes-Einstein equation. Correlation function was curve fitted by cumulant method to calculate mean size and polydispersion index (PDI). All measurements were repeated three times, and volume-weighted particle sizes were presented as the average diameter with standard deviation.

[5] = Physical stability / drug loss from PEG-b-PLA micelles after 24 hours (turbidity, HPLC); assay type: physicochemical; conditions: for drug precipitated at 24 hours: SDM, HPLC data; for % w/w drug(s) left @ 24 hr / initial drug level in water / drug level @ 24 hr in water: PEG-b-PLA micelles; for time the micelles were physically stable: turbidity, ambient temperature
Experimental: Turbidity measurements were used to evaluate the physical stability of drug-loaded PEG-b-PLA micelles. A CARY 50 BIO UV-Visible spectrophotometer equipped with dip probe was used to measure turbidity. Micellar solutions were diluted six times, for a final concentration of PEG-b-PLA of 5 mg/mL, with DD H2O and filtered through 0.45 μm filter. […] Each measurement was performed in triplicate.

[6] = In vitro drug release from PEG-b-PLA micelles (dialysis method); assay type: physicochemical; conditions: 12.5 mM PBS, pH=7.4, 37° C.
Experimental: (§1) SDMs or MDMs were prepared and characterized as described above. Post micelle preparation each sample was diluted with DD H2O, to yield about 0.10 mg/mL of each drug. A volume of 2.5 mL of the prepared sample was loaded into a 3 mL Slide-A-Lyzer® (Thermo Scientific Inc.) dialysis cassette with a MWCO of 20,000 g/mol. Four cassettes were used in each experiment. The cassettes were placed in 2.0 L of buffer which was changed every 3 hours to ensure sink conditions for drug(s) and polymer. A sample of 100 μL was drawn from each cassette at various sampling time intervals and then replaced with 100 μL of fresh buffer. […] The amount of drug(s) in each sample was quantified by HPLC as described above.
Statistical analysis was performed using one-way ANOVA at 5% significance level combined with Tukey's Multiple Comparison Test or t-test at 5% significance level. Curve-fitting analysis using one phase exponential association was used to calculate the half-life (t1/2) of drug in in vitro drug release experiments. Both analyses were performed using GraphPad Prism version 5.00 for Windows, Graph-Pad Software, San Diego Calif. USA, www.graphpad.com.
as §1, with “Post-micelle preparation,” for “Post micelle preparation”, “yield samples of” for “yield”, “reverse phase HPLC.” for “HPLC as described above.”

[7] = Drug solubilization by PEG-b-PLA micelles (drug level in water, reverse phase HPLC); conditions: SDM or MDM, PEG-b-PLA (4.2K:1.9K) micelles
Experimental: The drug-polymer mixture was dissolved in 0.50 mL acetonitrile (ACN). The ACN was removed at 60° C. under reduced pressure on a rotary evaporator resulting in the formation of a homogenous film, The drug-polymer film was rehydrated with 0.50 mL of DD H2O at 60° C. with gentle agitation resulting in a clear solution of drug-loaded PEG-b-PLA micelles. The micellar solution was filtered using a 0.45 μm filter, and the micelles were characterized in terms of size and loading by Dynamic Light Scattering (DLS) and HPLC respectively.
MDMS were prepared similarly to the SDMs by mixing 2.0 mg of each drug with 15 mg of the polymer. The procedure for the preparation and characterization of these micelles was identical to the SDMs.
The content of drug loaded in PEG-b-PLA micelles was quantified by reverse phase HPLC. The HPLC system used for quantifying was a Shimadzu prominence HPLC system (Shimadzu, JP), consisting of a LC-20AT pump, SIL-20AC HT autosampler, CTO-20AC column oven and a SPD-M20A diode array detector. A sample of 10 μL was injected into a Zorbax SB-C8 Rapid Resolution cartridge (4.6×75 mm, 3.5 micron, Agilent). The column temperature was maintained at 40° C. throughout the run. Two HPLC methods were developed to quantify the amount of the drug(s) loaded in PEG-b-PLA micelles.
The mobile phase was an isocratic mixture of 45% ACN and 54% aqueous phase containing 0.1% phosphoric acid and 1% methanol in DD H2O.
The mobile phase was a gradient mixture of ACN and aqueous phase containing 0.1% phosphoric acid and 1% methanol in DD H2O. […] With both HPLC methods samples were injected twice and reproducible and rapid separation of the drugs was achieved.
Mn of PEG and PLA of PEG-b-PLA was 4,200 and 1,900 g/mol, respectively (APC Inc., UK). ACN was removed by heating at 60° C. and reduced pressure. The resultant dry polymer film containing anti-cancer agent(s) was dissolved by addition of water (0.50 mL) at 60° C. with gentle agitation.
The resultant dry PEG-b-PLA film containing drugs was dissolved by the addition of water (0.50 mL) at 60° C. with gentle agitation.

[8] = Solubilization with Poloxamer F68 (reference example); assay type: physicochemical; conditions: analyte rapamycin
Description: Several polymers that form micelles with drugs were surveyed for solubilizing a paclitaxel-rapamycin-17-AAG drug combination. […] For example, the PEG-PPG-PEG triblock polymer Poloxamer F68 is useful to solubilize many hydrophobic compounds such as resveratrol, a hydrophobic compound with reported anticancer activity. […] In these attempts, the micelles coagulated and deteriorated in aqueous solutions.
Results for forming micelles of the paclitaxel-rapamcyin-17-AAG combination with Poloxamer F68: […]

[9] = test system: 4T1 murine breast cancer cells; experiment: In vitro cytotoxicity, resazurin assay, and combination index; assay type: cell-based; conditions: drug(s) in SDM or MDM, 72 hours, unit inferred
Experimental: MCF-7 human breast cancer cells were cultured in DMEM medium while 4T1 murine breast cancer cells, A549 human non-small cell lung cancer cells, and LS180 human colon cancer cells were cultured in RPMI1640 medium. Both media were supplemented with 10% fetal bovine serum (FBS) with antibiotics under 5% CO2 and 37° C. in an incubator. […] Free drugs were dissolved in DMSO, and drug-loaded PEG-b-PLA micelles were in deionized water. […] […] The metabolic conversion of resazurin dye by each viable cancer cell was quantified using a fluorescence cell plate reader (SpectraMax M2, Molecular Devices, USA) to estimate cell viability. […] IC50 values of free drugs and drug-loaded PEG-b-PLA micelles were calculated based on median-effect equation using Compusyn software (ver. 1.0).
(§2) CI values were obtained at IC50 values for 2- or 3-drug combinations. CI<1, C=1, and CI>1 were used as criteria to determine whether 2- or 3-drug combinations are synergistic, additive, and antagonistic, respectively (FIGS. 13-20).

[10] = test system: MCF-7 human breast cancer cells; experiment: as above; assay type: cell-based; conditions: MCF-7, drug(s) in SDM or MDM (PEG-b-PLA micelles), 72 hours, nM printed in b258 only, PTX/17-AAG 3.2:1, RAP/17-AAG 1:1, RAP/PTX 1:1, RAP/PTX/17-AAG 1:5:1
Experimental: (§3) MCF-7 human breast cancer cells were cultured in DMEM medium while 4T1 murine breast cancer cells, A549 human non-small cell lung cancer cells, and LS180 human colon cancer cells were cultured in RPMI1640 medium. Both media were supplemented with 10% fetal bovine serum (FBS) with antibiotics under 5% CO2 and 37° C. in an incubator. […] Free drugs were dissolved in DMSO, and drug-loaded PEG-b-PLA micelles were in deionized water. The samples were diluted with cell culture media to make 0.10, 1.0, 10, 100 and 1000 nM in 96 well plates. […] The metabolic conversion of resazurin dye by each viable cancer cell was quantified using a fluorescence cell plate reader (SpectraMax M2, Molecular Devices, USA) to estimate cell viability. […] IC50 values of free drugs and drug-loaded PEG-b-PLA micelles were calculated based on median-effect equation using Compusyn software (ver. 1.0).
as §2

[11] = test system: A549 human non-small cell lung cancer cells; experiment: as above; assay type: cell-based; conditions: drug(s) in SDM or MDM, 72 hours, unit inferred
Experimental: as §3, §2

[12] = dogs; cited from earlier work
physchem = assay type: physicochemical
Experimental: The mixture is mixed and sonicated for five minutes. The solvent is then removed by rotoevaporation at approximately 60° C. to provide a film. Hot (˜60° C.) deionized water is added to the oil and the solution is allowed to cool to ˜23° C. The solution is then centrifuged to remove the sediment in a 1.5 mL microtube, at ˜13,200 rpm for 1 minute. The supernatant is collected and filtered through a 0.2 μm PTFE filter.
The resulting solution was dialyzed against H2O in 3500 MWCO tubing (SpectraPor). Resulting micelles were centrifuged at 5000g's for 10 minutes to precipitate unincorporated drug. […] Micelle solutions were concentrated by rotary evaporation under reduced pressure at room temperature, followed by centrifugation (5000g's for 10 minutes).

[13] = assay type: in vivo, rats; conditions: micelle formulation compared to the standard vehicle that employs CrEL
[14] = PTX/17-AAG 4.7:1, RAP/17-AAG 1:1, RAP/PTX 1:1, RAP/PTX/17-AAG 1:5:1, read-out: IC50
[15] = PTX/17-AAG 4.7:1, RAP/17-AAG 1:1, RAP/PTX 1:1, RAP/PTX/17-AAG 1:5:1

Structure (SMILES): C=CCNC1=C2C[C@@H](C)C[C@H](OC)[C@H](O)[C@@H](C)/C=C(\C)[C@H](OC(N)=O)[C@@H](OC)/C=C\C=C(/C)C(=O)NC(=CC1=O)C2=O [17-AAG, 17-allylamino-17-demethoxygeldanamycin]
maximum tolerated dose [12]: 100-200 mg/m^2/day | 17-AAG solubilized (physchem; PEG-PLA (12:6 kDa) micelles): 1.5 mg/mL | solubility (physchem; PEG-PLA (12:6 kDa) micelles in water, aqueous with cosolvent or surfactant or cyclodextrin): ~1500 µg/mL (≈ 2560 µM) | % drug loading (wt. drug(s)/wt. polymer) [3]: 13.0 ± 0.9% and 11.3 ± 0.3% | IC50 [9, 15]: 118 ± 10 nM | PEG-b-PLA micelle diameter [4]: 39.3 ± 2.9 nm | initial drug level in water ([5]; analyte 17-AAG): 3.90 ± 0.28 mg/mL | drug level @ 24 hr in water ([5]; analyte 17-AAG): 3840 ± 180 µg/mL | first-order rate constant ([6]; release of 17-AAG): 0.525 h⁻¹ | IC50 [10]: 266 ± 48 nM | IC50 [11, 15]: 771 ± 163 nM | Renal clearance (CLrenal) [13]: increased | hepatic clearance (CLhepatic) [13]: decreased | drug level in water ([7]; analyte 17-AAG): 3900 ± 280 µg/mL

Structure (SMILES): CO[C@H]1/C=C\C=C(/C)C(=O)NC2=CC(=O)C(NCCN(C)C)=C(C[C@@H](C)C[C@H](OC)[C@H](O)[C@@H](C)/C=C(\C)[C@@H]1OC(N)=O)C2=O [17-DMAG, 17-dimethylamino-ethylamino-17-demethoxygeldanamycin]
maximum tolerated dose [12]: 8 mg/m^2/day

Second part, led by results:

% drug loading (wt. drug(s)/wt. polymer) [3]: 11.0 ± 0.5% | % drug loading (wt. drug(s)/wt. polymer) ([3]; listed as ETO): 9.6% | PEG-b-PLA micelle diameter [4]: 32.6 ± 1.0 nm | drug precipitated at 24 hours [5]: ~68% | % w/w drug(s) left @ 24 hr ([5]; analyte etoposide): 32.3 ± 3.4 % w/w | initial drug level in water ([5]; analyte etoposide): 3.31 ± 0.15 mg/mL | drug level @ 24 hr in water ([5]; analyte etoposide): 1070 ± 160 µg/mL | time the micelles were physically stable [5]: approximately 6 hours | drug level in water ([7]; analyte etoposide): 3310 ± 150 µg/mL
Structure (SMILES): COc1cc([C@@H]2c3cc4c(cc3[C@@H](O[C@@H]3O[C@@H]5CO[C@@H](C)O[C@H]5[C@H](O)[C@H]3O)[C@H]3COC(=O)[C@H]23)OCO4)cc(OC)c1O [Etoposide]
decrease of the IC50 of ETO [1]: 10 fold | intrinsic solubility in water [2]: 58 µg/mL | first-order rate constant ([6]; release of etoposide): 0.636 h⁻¹

% drug loading (wt. drug(s)/wt. polymer) [3]: 14.2 ± 1.5% and 11.5 ± 0.5% | % drug loading (wt. drug(s)/wt. polymer) ([3]; listed as DCTX): 11.5% | PEG-b-PLA micelle diameter [4]: 37.3 ± 1.7 nm | drug precipitated at 24 hours [5]: ~73% | % w/w drug(s) left @ 24 hr ([5]; analyte docetaxel): 26.8 ± 3.3 % w/w | initial drug level in water ([5]; analyte docetaxel): 4.27 ± 0.44 mg/mL | drug level @ 24 hr in water ([5]; analyte docetaxel): 1140 ± 30 µg/mL | time the micelles were physically stable [5]: approximately 6 hours | drug level in water ([7]; analyte docetaxel): 4270 ± 440 µg/mL | drug level in water ([7]; analyte docetaxel, listed as DCTX): 4270 µg/mL
Structure (SMILES): CC(=O)O[C@@]12CO[C@@H]1C[C@H](O)[C@@]1(C)C(=O)[C@H](O)C3=C(C)[C@@H](OC(=O)[C@H](O)[C@@H](NC(=O)OC(C)(C)C)c4ccccc4)C[C@@](O)([C@@H](OC(=O)c4ccccc4)[C@H]21)C3(C)C [Docetaxel]
intrinsic solubility in water [2]: 5.5 µg/mL | first-order rate constant ([6]; release of docetaxel): 0.379 h⁻¹

loading into micelles [8]: 4% | % drug loading (wt. drug(s)/wt. polymer) [3]: 6.6 ± 1.3% | PEG-b-PLA micelle diameter [4]: 36.9 ± 1.3 nm | % w/w drug(s) left @ 24 hr ([5]; analyte rapamycin): 91.5 ± 0.2 % w/w | initial drug level in water ([5]; analyte rapamycin): 1.84 ± 0.26 mg/mL | drug level @ 24 hr in water ([5]; analyte rapamycin): 1680 ± 230 µg/mL | drug level in water ([7]; analyte rapamycin): 1840 ± 260 µg/mL
Structure (SMILES): CO[C@H]1C[C@@H]2CC[C@@H](C)[C@@](O)(O2)C(=O)C(=O)N2CCCC[C@H]2C(=O)O[C@H]([C@H](C)C[C@@H]2CC[C@@H](O)[C@H](OC)C2)CC(=O)[C@H](C)/C=C(\C)[C@@H](O)[C@@H](OC)C(=O)[C@H](C)C[C@H](C)/C=C/C=C/C=C/1C [Rapamycin]
IC50 [9, 14]: > 100000 nM | first-order rate constant ([6]; release of rapamycin): 0.100 h⁻¹ and 0.081 h⁻¹ | IC50 ([10]; read-out: IC50): 255 ± 37 nM | IC50 [11, 14]: 590 ± 110 nM
